Test results from PMC11867202, “Phosphonoalamides Reveal the Biosynthetic Origin of Phosphonoalanine Natural Products and a Convergent Pathway for Their Diversification” (Angewandte Chemie (International ed. in English), 2024).
Like-named read-outs stand apart in the source and are kept apart here. One block for each compound: values may come before it.

What was measured:
[1] = tested on: T1, PnaA; experiment: coupled spectrophotometric assay, NADH oxidation via malate dehydrogenase; assay type: biochemical, Streptomyces sp. NRRL S-515; settings: co-substrate L-Asp; PLP; read-out: Km (apparent)
T1 construct: recombinant, purified from E. coli; PLP-dependent

[2] = tested on: T2, PnaD; experiment: coupled spectrophotometric assay, NADH oxidation; PnaD with PnaA; assay type: biochemical, Streptomyces sp. NRRL S-515; settings: two-enzyme system, 5:1 PnaD to PnaA; co-substrate L-Asp; read-out: Km (apparent)
T2 construct: recombinant, purified from E. coli; assayed coupled to PnaA
Description: coupled spectrophotometric assay, NADH oxidation; PnaD with PnaA on PnaD | apparent steady state parameters for the conversion of PEP to L-PnAla in reactions with PnaD

[3] = tested on: T1, PnaA; experiment: coupled spectrophotometric assay, NADH oxidation via PnPy reductase VlpB; assay type: biochemical, Streptomyces sp. NRRL S-515; settings: reverse reaction; co-substrate oxaloacetate; PLP; varied substrate not explicitly named in main text; read-out: Km (apparent)
Description: coupled spectrophotometric assay, NADH oxidation via PnPy reductase VlpB on PnaA | the reverse reaction (transamination of PnAla and OAA to PnPy and Asp)

[4] = tested on: PnaA; settings: read-out: Km (apparent); co-substrate oxaloacetate; PLP

Structure (SMILES): O=C(O)C(=O)CP(=O)(O)O [PnPy]
Km [1]: 4.8 ± 0.4 µM

Structure (SMILES): C=C(OP(=O)(O)O)C(=O)O [PEP]
Km [2]: 546 ± 60 µM

Structure (SMILES): N[C@@H](CP(=O)(O)O)C(=O)O [PnAla]
Km [3]: 327 ± 40 µM

Further lines, results first:

Km [1]: 899 ± 97 µM
Structure (SMILES): O=C(O)CCC(=O)C(=O)O [αKG]

Km [4]: 7500 ± 700 µM
Structure (SMILES): N[C@@H](CCC(=O)O)C(=O)O [Glu]
